In this experiment the target is T1, human HSD17β13 (stable HEK293T cell line overexpressing human HSD17β13) (Homo sapiens, UniProt Q7Z5P4).
T1 construct: expressed in transfected cells
T1 sequence (Q7Z5P4 20-300): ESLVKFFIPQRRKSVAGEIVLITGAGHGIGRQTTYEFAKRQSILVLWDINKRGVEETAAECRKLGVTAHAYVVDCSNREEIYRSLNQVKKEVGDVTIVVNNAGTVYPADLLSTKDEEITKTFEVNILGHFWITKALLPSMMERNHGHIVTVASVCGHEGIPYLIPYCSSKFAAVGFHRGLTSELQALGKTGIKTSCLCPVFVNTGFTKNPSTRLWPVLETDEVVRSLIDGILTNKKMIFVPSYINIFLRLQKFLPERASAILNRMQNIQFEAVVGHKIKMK
The experiment is described as follows: HSD17β13 inhibitor cell-based screening assay (conversion of estradiol-d2 to estrone-d2 by RF-MS). Conditions: conversion of estradiol-d2 to estrone-d2 after 24 hours. The protocol: The purpose of this cell-based assay is to determine the cellular efficacy (IC50) of HSD17β13 inhibitors in a stable HEK293 T cell line overexpressing human HSD17β13. The assay measures by Rapid Fire mass-spectrometry (RF-MS) the conversion of estradiol-d2 to estrone-d2. Cytotoxicity was also assessed via luminescent signal generated by the ATPlite viability assay reagent. To screen compounds for HSD17013 inhibition, black 384-well plates were seeded with 1000× concentration of compounds in a 9-point 1:3 dilution curve (final top concentration of 10 μM) as well as 1000× concentration of 17β-estradiol-d2 (5 μM final concentration) added to all wells. HEK293T cells stably overexpressing human HSD17013 and the parent HEK293T cell lines were then seeded in the plates on top of the compounds and substrate in MEM media containing 1% charcoal/dextran-treated FBS. Supernatant is collected and immediately frozen after 24 hours of incubation, and conversion of estradiol-d2 to estrone-d2 is measured at Pure Honey by RF-MS. The remaining media in the plate was removed from the wells and replaced with ATPlite viability assay reagent. Luminescent signal from the ATPlite reagent was measured on the Envision plate reader. 10 μL of 10 mM compounds stocks (1000×) dissolved in DMSO were pipetted into the appropriate wells on the 384 LDV plate (Labcyte; cat. no.: LP-0200) and the appropriate volumes of DMSO solvent were included onto an intermediate plate to further dilute the compound stocks to complete the 9-pt dose curve (final top concentration of 10 μM). 10 μL per well of 5 mM estradiol-d2 (1000×) (Cayman; item no.: 9002846) (5 μM final concentration) dissolved in DMSO was seeded into the appropriate number of wells on the same source plate as the compounds. The Echo 650 (Labcyte) was used for compound dilutions and dispensing both the compounds and the substrate onto a dry 384-well black assay plate (Falcon/Corning; cat. no.:353962). Afterwards, cells were immediately counted and seeded onto the plate. Cells were cultured for expansion in EMEM (ATCC; cat. no.: 30-2003)+10% FBS (Hyclone; cat. no.: SH3007003)+1×PenStrep (Gibco; cat. no.: 15140-122). All media for stable cell line overexpressing HSD17013 also included […] zeocin (Invitrogen; cat. no.: 46-0509) for selection. To prepare cells for seeding into the 384-well assay plate, cells were trypsinized for 3 minutes in the incubator. The Trypsin-EDTA (0.25%) (Gibco; cat. no.: 25200056) was neutralized with EMEM complete culture medium warmed to 37° C. Cells were then centrifugated at 300×g for 5 minutes at room temperature. The cell pellet was resuspended in phenol red-free MEM (Gibco; cat. no.: 51200-038)+1% charcoal/dextran-treated FBS (Hyclone; cat. no.: SH3006803) and 1×PenStrep warmed to 37° C. Cells were then counted using the TC20 automated cell-counter (Bio-Rad) and disposable duel chamber counting slides (Bio-Rad; cat. no.: 1450016) for a cell density of 1.5E5 cells/mL to then seed into the assay plate at 7.5E3 cells/well with 50 μL of media per well. Prior to the 24-hour time point, a solution of 1% formic acid (10×) (Honeywell; cat. no.: 94318) in MEM phenol red-free MEM+1% charcoal/dextran-treated FBS and 1×PenStrep was made. ATPlite luminescent ATP detection reagent (PerkinElmer; cat. no.: 6016739) was prepared according to the manufacturer's instructions. A new 384-well Falcon plate (collection plate) was seeded with 2 μL per well of 10× formic acid and then 18 μL of cell supernatant was added onto the formic acid, resulting in a 20 μL per well solution of 0.1% formic acid (1×) in supernatant. The plate of collected supernatant was immediately frozen on dry ice before being stored at −80° C. The collection plate was shipped to Momentum Biotechnologies for analysis. The remaining supernatant in the assay plate was discarded and 25 μL of ATPlite reagent was added to each well. […]

As a reminder, the IC50 is the concentration that gives 50% inhibition. A higher IC50 goes with a need for much substance. For the compound `N#Cc1ccc(-c2nc3sc4c(O)c(Cl)ccc4c3c(=O)n2Cc2cnco2)c(C2CC2)c1` [Example 111, 4-(7-chloro-8-hydroxy-3-(oxazol-5-ylmethyl)-4-oxo-3,4-dihydrobenzo[4,5]thieno[2,3-d]pyrimidin-2-yl)-3-cyclopropylbenzonitrile], the IC50 is < 100 nM.

On to `CS(=O)(=O)c1cnc(-c2nc3sc4c(O)c(Cl)ccc4c3c(=O)n2Cc2cc(C(F)(F)F)no2)c(C2CC2)c1` [Example 112, 7-chloro-2-(3-cyclopropyl-5-(methylsulfonyl)pyridin-2-yl)-8-hydroxy-3-((3-(trifluoromethyl)isoxazol-5-yl)methyl)benzo[4,5]thieno[2,3-d]pyrimidin-4(3H)-one], for which the IC50 is < 100 nM. Then `N#Cc1ccc(-c2nc3sc4c(O)c(Cl)ccc4c3c(=O)n2Cc2ccc(C(F)(F)F)nc2)c(C2CC2)c1` [Example 113, 4-(7-chloro-8-hydroxy-4-oxo-3-((6-(trifluoromethyl)pyridin-3-yl)methyl)-3,4-dihydrobenzo[4,5]thieno[2,3-d]pyrimidin-2-yl)-3-cyclopropylbenzonitrile], with < 100 nM; and `N#Cc1ccc(-c2nc3sc4c(O)c(Cl)ccc4c3c(=O)n2Cc2cnc(C(F)(F)F)nc2)c(C2CC2)c1` [Example 114], with < 100 nM. For the compound `N#Cc1cnc(-c2nc3sc4c(O)c(Cl)ccc4c3c(=O)n2Cc2cc(C(F)(F)F)no2)c(C2CC2)c1` [Example 115], the half-inhibitory concentration (IC50) is < 100 nM. The value for `O=c1c2c(nc(-c3ncc(C(F)F)cc3C3CC3)n1Cc1cnc(C(F)(F)F)nc1)sc1c(O)c(Cl)ccc12` [Example 116, 7-chloro-2-(3-cyclopropyl-5-(difluoromethyl)pyridin-2-yl)-8-hydroxy-3-((2-(trifluoromethyl)pyrimidin-5-yl)methyl)benzo[4,5]thieno[2,3-d]pyrimidin-4(3H)-one] was < 100 nM. The value for `COc1cc(-c2nc3sc4c(O)c(Cl)ccc4c3c(=O)n2Cc2cnco2)c(C2CC2)cc1OC` [Example 118] was 100 to 500 nM. The compound `COc1ccc(-c2nc3sc4c(O)c(Cl)ccc4c3c(=O)n2Cc2cnco2)c(C2CCCC2)c1` [Example 121] yielded an IC50 of 100 to 500 nM. `COc1ccc(-c2nc3sc4c(O)c(Cl)ccc4c3c(=O)n2Cc2cnco2)c(C)c1` [Example 124] returned a half-maximal inhibitory concentration (IC50) of 100 to 500 nM. For `C#CCn1c(-c2ccc(OC)cc2C2CC2)nc2sc3c(O)c(Cl)ccc3c2c1=O` [Example 126], the IC50 was 100 to 500 nM. Consider `CCn1c(=O)c(C)cn(CCCn2c(-c3ccc(OC)cc3C3CC3)nc3sc4c(O)c(Cl)ccc4c3c2=O)c1=O` [Example 127], for which the IC50 was < 100 nM. The value for `COc1ccc(-c2nc3sc4c(O)c(Cl)ccc4c3c(=O)n2Cc2cnco2)c(C(C)(C)C)c1` [Example 128] was 500 to 1000 nM. The value for `COc1ccc(-c2nc3sc4c(O)c(Cl)ccc4c3c(=O)n2Cc2cn(C(F)F)nn2)c(C2CC2)c1` [Example 129] was < 100 nM. The value for `O=c1c2c(nc(-c3c(C4CC4)ccc(C(F)(F)F)c3F)n1Cc1cnco1)sc1c(O)c(Cl)ccc12` [Example 134] was < 100 nM. Consider `O=c1c2c(nc(-c3cc(C(F)(F)F)ccc3C3CC3)n1Cc1cnco1)sc1c(O)c(Cl)ccc12` [Example 136], for which the IC50 was < 100 nM.

In the case of `O=c1c2c(nc(-c3cccc(C(F)(F)F)c3C3CC3)n1Cc1cnco1)sc1c(O)c(Cl)ccc12` [Example 139], the IC50 was < 100 nM. The value for `O=c1c2c(nc(-c3ccc4cc[nH]c4c3C3CC3)n1Cc1cnco1)sc1c(O)c(Cl)ccc12` [Example 140] was < 100 nM.

As for `O=c1c2c(nc(-c3cc(F)c(C(F)F)cc3C3CC3)n1Cc1cnco1)sc1c(O)c(Cl)ccc12` [Example 141], the IC50 is < 100 nM. Then `Cn1ncc2cc(-c3nc4sc5c(O)c(Cl)ccc5c4c(=O)n3Cc3cnco3)c(C3CC3)cc21` [Example 142], with < 100 nM; and `O=c1c2c(nc(-c3ccc4ccccc4c3C3CC3)n1Cc1cnco1)sc1c(O)c(Cl)ccc12` [Example 145], with < 100 nM; and `COc1cccc(-c2nc3sc4c(O)c(Cl)ccc4c3c(=O)n2Cc2cnco2)c1C1CC1` [Example 146], with < 100 nM.

As to `CCn1c(=O)c(C)cn(CCn2c(-c3ccc(OC)cc3C3CC3)nc3sc4c(O)c(Cl)ccc4c3c2=O)c1=O` [Example 150], the IC50 fell in the range of 500 to 1000 nM.

Turning to `COc1ccc(-c2nc3sc4c(O)c(Cl)ccc4c3c(=O)n2Cc2ccncc2)c(C2CC2)c1` [Example 151], the 50% inhibitory concentration (IC50) was < 100 nM. Take `COc1ccc(-c2nc3sc4c(O)c(Cl)ccc4c3c(=O)n2Cc2cccnc2)c(C2CC2)c1` [Example 152]: the IC50 was < 100 nM.

Regarding `COc1ccc(-c2nc3sc4c(O)c(Cl)ccc4c3c(=O)n2Cc2ccc(C(F)(F)F)nc2)c(C2CC2)c1` [Example 153], the IC50 was < 100 nM.

Consider `COc1ccc(-c2nc3sc4c(O)c(Cl)ccc4c3c(=O)n2Cc2cncc(C(F)(F)F)c2)c(C2CC2)c1` [Example 154], for which the half-maximal inhibitory concentration (IC50) was < 100 nM. The value for `COc1ccc(-c2nc3sc4c(O)c(Cl)ccc4c3c(=O)n2Cc2ccnc(C(F)(F)F)c2)c(C2CC2)c1` [Example 155] was < 100 nM.

With `COc1ccc(-c2nc3sc4c(O)c(Cl)ccc4c3c(=O)n2Cc2ccnc(OC)c2)c(C2CC2)c1` [Example 156], the half-maximal inhibitory concentration (IC50) is < 100 nM. Consider `COc1ccc(C2=Nc3sc4c(O)c(Cl)ccc4c3C(=O)C2Cc2cc[nH]c(=O)c2)c(C2CC2)c1` (stereo not drawn) [Example 157], for which the half-inhibitory concentration (IC50) was 100 to 500 nM.

As for `O=c1c2c(nc(-c3sc4ccccc4c3C3CC3)n1Cc1cnco1)sc1c(O)c(Cl)ccc12` [Example 158], the IC50 is < 100 nM. The value for `O=c1c2c(nc(-c3ccc(C(F)F)cc3C3CC3)n1Cc1cnco1)sc1c(O)c(Cl)ccc12` [Example 159] was < 100 nM; that for `COc1ccc(-c2nc3sc4c(O)c(Cl)ccc4c3c(=O)n2Cc2ccc(OC)nc2)c(C2CC2)c1` [Example 160] was < 100 nM; that for `COc1ccc(C2=Nc3sc4c(O)c(Cl)ccc4c3C(=O)C2Cc2ccc(=O)[nH]c2)c(C2CC2)c1` (stereo not drawn) [Example 161] was < 100 nM. The value for `O=c1c2c(nc(-c3cc(F)c(F)cc3C3CC3)n1Cc1ccc(C(F)(F)F)nc1)sc1c(O)c(Cl)ccc12` [Example 162] was < 100 nM; that for `O=c1c2c(nc(-c3cc(F)c(F)cc3C3CC3)n1Cc1cccnc1)sc1c(O)c(Cl)ccc12` [Example 163] was < 100 nM; that for `Cn1ncc2cc(-c3nc4sc5c(O)c(Cl)ccc5c4c(=O)n3Cc3cc(C(F)(F)F)no3)c(C3CC3)cc21` [Example 164] was < 100 nM. Then `O=c1c2c(nc(-c3cc(F)c(F)cc3C3CC3)n1Cc1cc(Br)no1)sc1c(O)c(Cl)ccc12` [Example 165], with < 100 nM; and `CS(=O)(=O)c1ccc(-c2nc3sc4c(O)c(Cl)ccc4c3c(=O)n2Cc2cccnc2)c(C2CC2)c1` [Example 166], with < 100 nM; and `Cn1ccc(Cn2c(-c3cc(F)c(F)cc3C3CC3)nc3sc4c(O)c(Cl)ccc4c3c2=O)cc1=O` [Example 167], with < 100 nM.

(Values after patent US20250154163A1, “Pyrimidinone-Containing 17-Beta-Hydroxysteroid Dehydrogenase Type 13 Inhibitors” (ENANTA PHARMACEUTICALS, INC., priority 2023, published 2025).)
